# Test results as given in the supplement of paper PMC10307832.
# Legend:
# Assay in all cases: relative viability (nuclei count vs DMSO), 5 days (fraction); higher = more cells survive
# [1] = test system: 201T
# Method in brief: (§1)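 Lung cancer cell lines, seeded in 1536-well plates, were treated the following day by pin tool with a single drug or with five library-drug doses (not always all listed) in √10 steps on top of a fixed anchor-drug dose. Cells were fixed and nuclei stained in one step after 5 days, and nuclei were counted. Relative viability is the nuclei count for treated wells divided by that for vehicle wells, reported as medians of duplicate plates.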
# [2] = test system: A-427
# Method in brief: as §1
# [3] = test system: ABC-1
# Method in brief: as §1
# [4] = test system: BEN
# Method in brief: as §1
# [5] = test system: CAL-12T
# Method in brief: as §1
# [6] = test system: H3255
# Method in brief: as §1
# [7] = test system: HCC-15
# Method in brief: as §1
# [8] = test system: LC-2-ad
# Method in brief: as §1
# [9] = test system: LCLC-97TM1
# Method in brief: as §1
# [10] = test system: NCI-H1650
# Method in brief: as §1
# [11] = test system: NCI-H1651
# Method in brief: as §1
# [12] = test system: NCI-H1792
# Method in brief: as §1
# [13] = test system: NCI-H1915
# Method in brief: as §1
# [14] = test system: NCI-H2023
# Method in brief: as §1
# [15] = test system: NCI-H2087
# Method in brief: as §1
# [16] = test system: NCI-H441
# Method in brief: as §1
# [17] = test system: NCI-H460
# Method in brief: as §1
# [18] = test system: NCI-H520
# Method in brief: as §1
# [19] = test system: NCI-H596
# Method in brief: as §1
# [20] = test system: NCI-H650
# Method in brief: as §1
# [21] = test system: NCI-H661
# Method in brief: as §1
# [22] = test system: NCI-H727
# Method in brief: as §1
# [23] = test system: PC-3 [JPC-3]
# Method in brief: as §1
# [24] = test system: NCI-H1944
# Method in brief: as §1
structure (smiles),measurement,setting,value
CC(C)Oc1cc(Nc2nc(N[C@@H](C)c3ccc(F)cn3)ncc2Cl)n[nH]1 [AZ23] + CC(C)C[C@H](NC(=O)[C@H](Cc1ccccc1)NC(=O)c1cnccn1)B(O)O [Bortezomib] (partner 0.002 µM),relative viability,[1]; first compound 0.01 µM,1.18
same,relative viability,[1]; first compound 0.03162 µM,1.07
same,relative viability,[1]; first compound 0.3162 µM,1.13
same,relative viability,[2]; first compound 0.01 µM,1.07
same,relative viability,[2]; first compound 0.03162 µM,1.11
same,relative viability,[2]; first compound 0.3162 µM,0.969
same,relative viability,[3]; first compound 0.01 µM,0.29
same,relative viability,[3]; first compound 0.03162 µM,0.269
same,relative viability,[3]; first compound 0.3162 µM,0.255
same,relative viability,[4]; first compound 0.01 µM,0.817
same,relative viability,[4]; first compound 0.03162 µM,1.08
same,relative viability,[4]; first compound 0.3162 µM,0.867
same,relative viability,[5]; first compound 0.03162 µM,1.01
same,relative viability,[5]; first compound 0.3162 µM,0.876
same,relative viability,[6]; first compound 0.01 µM,0.64
same,relative viability,[6]; first compound 0.03162 µM,1.06
same,relative viability,[6]; first compound 0.3162 µM,0.81
same,relative viability,[7]; first compound 0.01 µM,1.38
same,relative viability,[7]; first compound 0.03162 µM,1.09
same,relative viability,[7]; first compound 0.3162 µM,1.16
same,relative viability,[8]; first compound 0.01 µM,1.16
same,relative viability,[8]; first compound 0.03162 µM,1.2
same,relative viability,[8]; first compound 0.3162 µM,1.01
same,relative viability,[9]; first compound 0.01 µM,0.277
same,relative viability,[9]; first compound 0.03162 µM,1
same,relative viability,[9]; first compound 0.3162 µM,0.755
same,relative viability,[10]; first compound 0.01 µM,0.189
same,relative viability,[10]; first compound 0.03162 µM,0.242
same,relative viability,[10]; first compound 0.3162 µM,0.187
same,relative viability,[11]; first compound 0.01 µM,0.957
same,relative viability,[11]; first compound 0.03162 µM,1.02
same,relative viability,[11]; first compound 0.3162 µM,1.01
same,relative viability,[12]; first compound 0.01 µM,1.27
same,relative viability,[12]; first compound 0.03162 µM,1.12
same,relative viability,[12]; first compound 0.3162 µM,1.06
same,relative viability,[13]; first compound 0.01 µM,1.26
same,relative viability,[13]; first compound 0.03162 µM,1.09
same,relative viability,[13]; first compound 0.3162 µM,1.05
same,relative viability,[14]; first compound 0.03162 µM,0.959
same,relative viability,[14]; first compound 0.3162 µM,1.22
same,relative viability,[15]; first compound 0.01 µM,1.3
same,relative viability,[15]; first compound 0.03162 µM,0.962
same,relative viability,[15]; first compound 0.3162 µM,0.778
same,relative viability,[16]; first compound 0.01 µM,0.833
same,relative viability,[16]; first compound 0.03162 µM,1.05
same,relative viability,[16]; first compound 0.3162 µM,0.678
same,relative viability,[17]; first compound 0.01 µM,0.915
same,relative viability,[17]; first compound 0.03162 µM,1.47
same,relative viability,[17]; first compound 0.3162 µM,1.38
same,relative viability,[18]; first compound 0.01 µM,0.434
same,relative viability,[18]; first compound 0.03162 µM,0.591
same,relative viability,[18]; first compound 0.3162 µM,0.495
same,relative viability,[19]; first compound 0.01 µM,1.17
same,relative viability,[19]; first compound 0.03162 µM,1.06
same,relative viability,[19]; first compound 0.3162 µM,1.1
same,relative viability,[20]; first compound 0.01 µM,0.71
same,relative viability,[20]; first compound 0.03162 µM,0.946
same,relative viability,[20]; first compound 0.3162 µM,0.84
same,relative viability,[21]; first compound 0.01 µM,0.828
same,relative viability,[21]; first compound 0.03162 µM,0.845
same,relative viability,[21]; first compound 0.3162 µM,0.773
same,relative viability,[22]; first compound 0.01 µM,0.855
same,relative viability,[22]; first compound 0.03162 µM,0.855
same,relative viability,[22]; first compound 0.3162 µM,0.867
same,relative viability,[23]; first compound 0.01 µM,0.893
same,relative viability,[23]; first compound 0.03162 µM,1.01
same,relative viability,[23]; first compound 0.3162 µM,0.887
CC(C)Oc1cc(Nc2nc(N[C@@H](C)c3ccc(F)cn3)ncc2Cl)n[nH]1 [AZ23] + Nc1ncn([C@H]2C[C@H](O)[C@@H](CO)O2)c(=O)n1 [Decitabine] (partner 2 µM),relative viability,[1]; first compound 0.01 µM,0.91
same,relative viability,[1]; first compound 0.03162 µM,0.875
same,relative viability,[1]; first compound 0.3162 µM,0.86
same,relative viability,[2]; first compound 0.01 µM,0.508
same,relative viability,[2]; first compound 0.03162 µM,0.558
same,relative viability,[2]; first compound 0.3162 µM,0.591
same,relative viability,[3]; first compound 0.01 µM,1
same,relative viability,[3]; first compound 0.03162 µM,1.22
same,relative viability,[3]; first compound 0.3162 µM,0.96
same,relative viability,[4]; first compound 0.01 µM,0.736
same,relative viability,[4]; first compound 0.03162 µM,0.829
same,relative viability,[4]; first compound 0.3162 µM,0.667
same,relative viability,[6]; first compound 0.01 µM,0.496
same,relative viability,[6]; first compound 0.03162 µM,0.634
same,relative viability,[6]; first compound 0.3162 µM,0.613
same,relative viability,[7]; first compound 0.01 µM,0.654
same,relative viability,[7]; first compound 0.03162 µM,0.596
same,relative viability,[7]; first compound 0.3162 µM,0.663
same,relative viability,[8]; first compound 0.01 µM,1.01
same,relative viability,[8]; first compound 0.03162 µM,0.862
same,relative viability,[8]; first compound 0.3162 µM,0.782
same,relative viability,[9]; first compound 0.01 µM,0.273
same,relative viability,[9]; first compound 0.03162 µM,0.212
same,relative viability,[9]; first compound 0.3162 µM,0.233
same,relative viability,[10]; first compound 0.01 µM,0.421
same,relative viability,[10]; first compound 0.03162 µM,0.41
same,relative viability,[10]; first compound 0.3162 µM,0.481
same,relative viability,[11]; first compound 0.01 µM,0.621
same,relative viability,[11]; first compound 0.03162 µM,0.644
same,relative viability,[11]; first compound 0.3162 µM,0.618
same,relative viability,[12]; first compound 0.01 µM,0.462
same,relative viability,[12]; first compound 0.03162 µM,0.549
same,relative viability,[12]; first compound 0.3162 µM,0.48
same,relative viability,[13]; first compound 0.01 µM,0.293
same,relative viability,[13]; first compound 0.03162 µM,0.272
same,relative viability,[13]; first compound 0.3162 µM,0.269
same,relative viability,[24]; first compound 0.01 µM,0.456
same,relative viability,[24]; first compound 0.03162 µM,0.46
same,relative viability,[24]; first compound 0.3162 µM,0.433
same,relative viability,[14]; first compound 0.03162 µM,0.259
same,relative viability,[14]; first compound 0.3162 µM,0.239
same,relative viability,[15]; first compound 0.01 µM,0.303
same,relative viability,[15]; first compound 0.03162 µM,0.265
same,relative viability,[15]; first compound 0.3162 µM,0.237
same,relative viability,[16]; first compound 0.01 µM,0.294
same,relative viability,[16]; first compound 0.03162 µM,0.248
same,relative viability,[16]; first compound 0.3162 µM,0.239
same,relative viability,[17]; first compound 0.01 µM,0.489
same,relative viability,[17]; first compound 0.03162 µM,0.514
same,relative viability,[17]; first compound 0.3162 µM,0.55
same,relative viability,[18]; first compound 0.01 µM,0.634
same,relative viability,[18]; first compound 0.03162 µM,0.524
same,relative viability,[18]; first compound 0.3162 µM,0.418
same,relative viability,[19]; first compound 0.01 µM,1.17
same,relative viability,[19]; first compound 0.03162 µM,1.07
same,relative viability,[19]; first compound 0.3162 µM,0.955
same,relative viability,[20]; first compound 0.01 µM,0.355
same,relative viability,[20]; first compound 0.03162 µM,0.329
same,relative viability,[20]; first compound 0.3162 µM,0.336
same,relative viability,[21]; first compound 0.01 µM,0.556
same,relative viability,[21]; first compound 0.03162 µM,0.582
same,relative viability,[21]; first compound 0.3162 µM,0.604
same,relative viability,[22]; first compound 0.01 µM,0.956
same,relative viability,[22]; first compound 0.03162 µM,0.945
same,relative viability,[22]; first compound 0.3162 µM,0.822
same,relative viability,[23]; first compound 0.01 µM,0.812
same,relative viability,[23]; first compound 0.03162 µM,0.851
same,relative viability,[23]; first compound 0.3162 µM,0.885
